Key:
[1] = system: rats and mice; settings: cited from earlier work
[2] = system: ganglionic nicotinic receptors; settings: agonist of ganglionic nicotinic receptors; cited from earlier work
[3] = system: central nicotinic receptor subtypes; settings: cited from earlier work
[4] = system: animal studies; settings: cited from earlier work
[5] = system: male and female Sprague Dawley rats; assay: Latency to hindpaw withdrawal from a focused light heat source after intrathecal injection; type: in vivo, rat; settings: for maximum possible analgesic effect: radiant heat paw withdrawal
Protocol: Trans-metanicotine was administered via intrathecal catheters inserted in male and female Sprague Dawley rats such that their tips were in the upper lumbar region. Analgesia was determined as an increase in the latency to withdrawal of the hindpaw from a focused light heat source. To prevent injury, duration of 30 seconds was not exceeded. The latency to paw withdrawal was determined both before and after intrathecal injection of trans-metanicotine in these rats, and the data were expressed as % maximum possible effect.

[6] = system: neuropathic rat hindlimb; assay: Neuropathic pain model (injury of spinal nerves L5 and L6), allodynia measured with von Frey filaments, intrathecal injection; type: in vivo; settings: one week after nerve injury
Source text: Analgesic potency of compounds of the present invention can also be tested in animal models of neuropathic or neurogenic pain. One such model resembles the human condition termed causalgia or reflex sympathetic dystrophy (RSD) secondary to injury of a peripheral nerve. This condition is characterized by hyperesthesia (enhanced sensitivity to a natural stimulus), hyperalgesia (abnormal sensitivity to pain), allodynia (hypersensitivity and pain to normally non-painful stimuli, either thermal or tactile), and spontaneous burning pain. In humans, neuropathic pain tends to be chronic and may be debilitating.
Briefly, in the model used, rats are subjected to a surgical procedure, described by Kim et al. (Kim, S. H. and Chung, J. M. (1992) Pain 50:355-363), designed to reproducibly injure peripheral nerves (spinal nerves L5 and L6). These rats develop a hyperesthetic state, which can be measured, using one or more paradigms known in the art. Here, allodynia was measured by stimulation of neuropathic rat hindlimb using nylon filaments having graded degrees of stiffness.
Sex differences in response to (E)-N-methyl-4-(3-pyridinyl)-3-butene-1-amine were tested using the assay described above. Hypersensitivity to light touch (withdrawal threshold to application of calibrated von Frey filaments) was documented one week later. […]

[7] = system: male and female Sprague Dawley rats; assay: Intraplantar capsaicin mechanical hyperalgesia, hindpaw withdrawal threshold with von Frey filaments, intrathecal injection; type: in vivo, rat; settings: for average % reduction in withdrawal threshold over the 2 hours after capsaicin injection: % change from pre-capsaicin threshold, capsaicin 30 μg intraplantar, 50 μg i.t.
Protocol: Adult male and female Sprague Dawley rats were prepared with insertion of intrathecal catheters as described above. Capsaicin (8-methyl-N-vanillyl nonamide) was prepared in a concentration of 30 μg in 10 μl. Briefly, capsaicin powder was first dissolved in Tween 80, then in isotonic saline and heated to 70° C. The solution obtained was filtered and stored in sterile glass vials. Each group of rats represents 6 males and 6 females tested at the same time and each animal received only one injection in the left plantar surface of the hindpaw. Each animal was lightly anesthetized under halothane and immediately after immobility, received intradermal capsaicin, 30 μg injected through a 28 G needle, in the center of the plantar surface. This dose was chosen because it produces mechanical hyperalgesia lasting at least 2 hours (Gilchrist, H. D., Allard, B. L., and Simone, D. A. Enhanced withdrawal responses to heat and mechanical stimuli following intraplantar injection of capsaicin in rats. Pain 1996;67: 179-188).
Hindpaw withdrawal thresholds were tested before capsaicin injection and every 30 minutes thereafter for 2 hours, using von Frey filaments and the up-down method described above. Care was taken to avoid direct contact of the injection point when measuring withdrawal threshold with the filaments. Intrathecal saline, or (E)-N-methyl-4-(3-pyridinyl)-3-butene-1-amine(50 μg) was injected prior to capsaicin.
Intraplantar injection of capsaicin produced a rapid onset, sustained reduction in withdrawal threshold in both sexes. However, male and female control animals differed in withdrawal threshold at baseline and after capsaicin, and the sexes were therefore compared by % change from pre-capsaicin threshold. By this analysis, the average % reduction in withdrawal threshold over the 2 hours after capsaicin injection was 74+/-5.3% in females and 64+/-6.7% in males (p=0.47, NS).

For `Clc1ccc(C2CC3CCC2N3)cn1` (stereo not drawn) [Epibatidine], the “analgesic potency relative to morphine” value [1] is listed as “three orders of magnitude higher than morphine” and the cardiorespiratory effects [2] is listed as “cardiorespiratory effects similar to those of nicotine”.

For `CNCC/C=C/c1cccnc1` [Metanicotine], the “selectivity for central nicotinic receptor subtypes compared to peripheral ganglionic and muscular nicotinic receptors” value [3] is listed as “high selectivity” and the antinociceptive effect [4] is listed as “dose dependent antinociceptive effect”.

With `CNCC/C=C/c1cccnc1` [trans-metanicotine, (E)-N-methyl-4-(3-pyridinyl)-3-butene-1-amine] the “maximum possible analgesic effect” value ([5]; female rats, i.t. injection) was 45%, the “antinociceptive response in females relative to males” value ([5]; i.t. injection, females vs males) was “twice as great” and the “duration of the antinociceptive response” value ([5]; male and female rats, i.t. injection) was “about 10 minutes”. For the same compound, the “effect at 60 μg compared with 20 μg (ceiling effect)” value ([5]; male and female rats, i.t., 60 μg) was “failed to be more effective”, the “dose dependence of the effect on paw withdrawal latency to a radiant heat stimulus” value ([5]; male and female rats, i.t., up to a dose of 20 μg) was “dose dependent inhibition of paw withdrawal latency” and the “maximum possible analgesic effect” value ([5]; male rats, i.t. injection) was 20%. The “return of the level of sensitivity to presurgery levels (mean ±SEM)” value ([6]; female rats, intrathecal, 100 μg) was 50±4%, the “effect on hypersensitivity to light touch (von Frey withdrawal threshold)” value ([6]; male rats, intrathecal injection) was “no effect” and the “average % reduction in withdrawal threshold over the 2 hours after capsaicin injection” value ([7]; female rats) was 74+/-5.3%. For the same compound, the “analgesia in the capsaicin model, comparison of the sexes” value ([7]; male and female rats, 50 μg i.t. prior to capsaicin) was “produced analgesia in this model of pain which was similar between the sexes” and the “average % reduction in withdrawal threshold over the 2 hours after capsaicin injection” value ([7]; male rats) was 64+/-6.7%.

Source: patent US6248744A, “Method for the treatment of pain, including chronic and female specific pain” (priority 2000, dated 2001)
